Source: US20050232891A1, “Methods of treating skin with diphosphonate derivatives” (ILEX Products Inc., priority 2001, published 2005)
Read-outs that look alike come from different tables or passages of the source.

Assays:
[1] = Percutaneous absorption of Apomine: plasma level after topical application; format: in vivo, female Swiss nude (nu/nu) mice; conditions: female, Swiss nude (nu/nu), mouse, three hours after the last application
Experimental: Plasma concentrations of Apomine are measured with a Hewlett Packard gas chromatograph using a nitrogen phosphorus detector and HP-5 15 m×0.32 mm column. Alberts et al., 2001). Apomine is extracted from plasma with methyl t-butyl ether (MTBE). To 250 μl of plasma sample, 10 μl of a methanolic solution of the internal standard (n-propyl phoposhonate analog of Apomine) at a final concentration of 4 μg/ml are added and mixed by vortexing. The compound and internal standard are extracted with 500 μl MTBE and 30 sec vigorous shaking. The organic layer obtained by centrifugation (5 min at 13,000 rpm) is dried under nitrogen and reconstituted in 250 μl MTBE of which 2 μl is injected with an autoampler for analysis. A calibration curve is established with plasma from untreated mice spiked with different concentrations of Apomine. The calibration curve is used to interpolate the concentrations of Apomine in the samples using the peak area ratio values.
Apomine (1 mg) was topically applied to five to six week old female Swiss nude (nu/nu) mice by application of 20 μl of a 50 mg/ml solution of Apomine in acetone. Treatment was continued daily for 24 days. Three hours after the last application the mice were sacrificed and plasma Apomine levels were measured. The plasma concentration was 1.12±0.10 μg/ml plasma (n=6), which is 2 μM Apomine. […]

HepG2 cells = test: Stimulation of collagen expression (cDNA microarray), Apomine treated versus control HepG2 cells; format: cell-based, human; conditions: gene expression; for fold induction at 1 µM: Homo sapiens, HepG2, 1 μM Apomine vs ethanol vehicle control
Experimental: HepG2 cells were grown in Dulbecco's modified Eagle medium (DMEM) supplemented with 10% FBS. Cells were harvested when they were about 80-90% confluent and were directly subjected to RNA isolation. Treated cells were incubated with 1 μM Apomine and control cells were incubated with a volume of ethanol used as vehicle for the Apomine.
DNA microarray slides used in this study were fabricated in the microarray core facilities at the Arizona Cancer Center (Calaluce et al., 2001). Each slide has 5760 spots divided into 4 blocks. Each block contains the same 8 ice plant genes from Mesembryanthemum crystallinum and 23 different housekeeping genes as references for data normalization. Overall, each slide has 5289 unique human cDNA sequences.
Poly(A)^+ RNA was directly isolated from cell pellets using the FastTrack 2.0 Kit (Invitrogen, Carsbad, Calif.) following the instruction manual provided by the manufacturer. Each RNA sample was inspected by denaturing agarose gel electrophoresis to ensure the quality of the preparation. Labeling and purification of cDNA probes were carried out using the MICROMAX direct cDNA microarray system (NEN Life Science Products, Boston, Mass.). Two to four micrograms of the poly(A)+ RNA samples were used for each labeling. Probes for Apomine treated HepG2 cells were labeled with Cyanine 5 (Cy5) and probes for HeLa cell was labeled with Cyanine 3 (Cy3). For investigation of control Hep2G cells, these cells were labeled with Cy3 and probes for HeLa cells were labeled with Cy5. Purified cDNA probes were dried and dissolved in 15 μL of Hybridization Buffer (included in the MICROMAX direct cDNA microarray system kit). The probes were then denatured by heating at 95° C. for 2 min and applied to the array area of a pre-denatured microarray slide. The microarray slide was covered with a […] slide cover slip and incubated in a HybChamber (GeneMachines, San Carlos, Calif.) at 62° C. for overnight. On the second day, the slide was washed in 0.5×SSC, 0.01% SDS for 5 min, 0.06×SSC, 0.01% SDS for 5 min, and 0.06×SCC for 2 min. Finally, the slide was dried by spinning at 500 g for 1 min and scanned in a dual-laser (635 nm for red fluorescent Cy5 and 532 nM for green fluorescent Cy3) microarray scanner (GenePix 4000, Axon Instruments, Foster City, Calif.).
Fluorescence intensities for both dyes (Cy3 and Cy5) and local background subtracted values for individual spots were obtained using the GenePix 4000 microarray scanner and accompanying software (Axon Instruments, Foster City, Calif.). The data were imported into Microsoft Excel spreadsheets for analysis. Defective spots, i.e., ones that are sub-standard on the scanned image or have negative background subtracted values, were first filtered. To minimize the effects of measurement variations introduced by artificial sources during experiments, only spots that had significant signals in both channels were included. The determination of this significance is based on signal intensities of non-homologous ice plant genes. Generally, if the signal intensity of a spot is less than the average of ice plant spots, the signal was considered as non-significant. In this analysis the significance cutoff for signal to background ratio as 1.4 was determined empirically. Thus, a spot was excluded in further analysis if it has a signal to background ratio less than 1.4 in both channels. For each spot, the median of ratios (the median of the pixel-by-pixel ratios of pixel intensities that have the median background intensity subtracted) was used in subsequent analysis. Spots representing housekeeping genes were used to normalize the entire slide so that all slides can be compared directly. For each pancreatic cell line, at least two hybridizations were carried out. The average of median ratios from replicates was calculated for each spot. […]

[2] = patients, 75 mg/m^2 twice a day orally for 14 days; cited from earlier work

Structure (SMILES): CC(C)OP(=O)(OC(C)C)C(Cc1cc(C(C)(C)C)c(O)c(C(C)(C)C)c1)P(=O)(OC(C)C)OC(C)C [Apomine, tetraisopropyl 2-(3,5-di-tert-butyl-4-hydroxyphenyl)-ethylidene-1,1-diphosphonate]
- concentration at 3 h ([1]; 1 mg topically (20 μl of 50 mg/ml in acetone) daily for 24 days, n=6): 1120 ± 100 ng/mL
- concentration at 3 h ([1]; 1 mg topically daily for 24 days): 2000 nM
- Fold induction, Procollagen, type III (HepG2 cells; 1 μM Apomine vs ethanol vehicle control): 6.49 fold
- fold induction at 1 µM (HepG2 cells; read-out: Fold induction, Collagen, type I, alpha 2): 1.65
- fold induction at 1 µM (HepG2 cells; read-out: Fold induction, Collagen, type II, alpha 1): 5.5
- fold induction at 1 µM (HepG2 cells; read-out: Fold induction, Collagen, type IV, alpha 4): 1.7
- fold induction at 1 µM (HepG2 cells; read-out: Fold induction, Collagen, type IX, alpha 3): 1.4
- fold induction at 1 µM (HepG2 cells; read-out: Fold induction, Collagen, type V, alpha 1): 1.42
- fold induction at 1 µM (HepG2 cells; read-out: Fold induction, Collagen, type VI, alpha 2): 2.4
- fold induction at 1 µM (HepG2 cells; read-out: Fold induction, Collagen, type VI, alpha 3): 1.16
- fold induction at 1 µM (HepG2 cells; read-out: Fold induction, Collagen, type XI, alpha 1): 2.66
- fold induction at 1 µM (HepG2 cells; read-out: Fold induction, Procollagen, type III): > 6
- adverse effects [2]: no adverse effects
